Assay results taken from ChEMBL document CHEMBL1128622, “Formation of nitrogen oxides including NO from oxidative cleavage of CN(OH) bonds: A general cytochrome P450-dependent reaction” (Bioorg Med Chem Lett, 1995).

What was measured:
[1] = species: Rattus norvegicus; test: Ability to undergo a P450-dependent oxidative cleavage of the C=N bond by incubating with rat (treated by DEX) liver microsomes in the presence of NADPH; assay type: functional
[2] = species: Rattus norvegicus; test: Ability to undergo a P450-dependent oxidative cleavage of their C=N bond, to release corresponding alkylketone derivative by incubating with rat (treated by DEX) liver microsomes in the presence of the NADPH; assay type: functional
[3] = species: Rattus norvegicus; conditions: Liver, Microsomes
[4] = species: Rattus norvegicus; conditions: Liver, Microsomes; remark: listed apart in the source
Description: Ability to undergo a P450-dependent oxidative cleavage of the C=N bond by incubating with rat (untreated) liver microsomes in the presence of NADPH

[5] = species: Rattus norvegicus; test: Ability to undergo a P450-dependent oxidative cleavage of their C=N bond, to release NO3- by incubating with rat (treated by DEX) liver microsomes in the presence of NADPH; assay type: functional

Row | SMILES | Formation of NO3- [1] [nM] | Formation of compound [2] [nM] | Formation of NO2- [3] [nM] | Formation of NO2- [4] [nM] | Formation of NO3- [5] [nM]
1 | C/C(=N\O)c1ccc(Cl)cc1 | 1.2 | 6.4 | 6.2 | 0.1 | –
2 | N/C(=N/c1ccc(C(F)(F)F)cc1)NO | – | – | 11 | < 0.1 | –
3 | N/C(=N\O)c1ccccc1 | – | – | 2.5 | 0.2 | –
4 | CCCC/C(CC)=N\O | – | – | 5.1 | < 0.1 | –
5 | N=C(NO)Nc1ccc(Cl)cc1 | – | 17.7 | 18.4 | 0.6 | 4.4
6 | CCCCC/C(C)=N\O | – | – | 7 | < 0.1 | –
7 | N/C(=N\O)c1ccc(Cl)cc1 | – | 5.1 | 2.6 | 0.7 | 1.5
8 | N/C(=N/C1CCCCC1)NO | – | – | 28.6 | < 0.1 | –
9 | N/C(=N\O)N1CCCCC1 | – | – | 79 | 1.1 | –
10 | CC(C)/N=C(/NO)NC(C)C | – | – | 62 | 0.9 | –
11 | C/C(=N\O)c1ccccc1 | – | – | 3.2 | < 0.1 | –
12 | CCCCCC/C=N/O | – | – | 3.7 | 0.2 | –
13 | O/N=C/c1ccc(Cl)cc1 | – | – | 2 | < 0.1 | –
14 | O/N=C/c1ccccc1 | – | – | 3 | < 0.1 | –
15 | ON=C1CCCCC1 | – | – | 3 | < 0.1 | –
16 | ON=C(NC1CCCCC1)NC1CCCCC1 | – | – | 58 | < 0.1 | –
17 | CCCCCCOc1ccc(C(=N)NO)cc1 | – | 12.5 | 6.8 | 0.6 | 8.1
